# Tested on: cortex metabolites
# Assay: Metabolomic analysis of cortex
# Assay type: in vivo, mice
# Conditions: cortex
# Method: Metabolomic analyses were conducted at Metabolon (Durham, NC, USA) as described previously. For statistical analyses and data display, any missing values were assumed to be below the limits of detection and imputed with the compound minimum (minimum value imputation). An estimate of the FDR (Q value) was calculated to take into account the multiple comparisons that normally occur in metabolomics-based studies, with Q < 0.05 used as an indication of high confidence in a result. The MetaboAnalyst tool was used to generate heat maps.
structure (smiles),measurement,setting,value
Cc1ccc(N(/N=C/c2cccc(OC(F)(F)F)c2)C(=O)C(F)(F)F)c(C)c1 [CAD-31],mannose-6-phosphate Fold Change,"AD+31/AD, p-value 0.9434",1.05
same,cytidine 5'-monophospho-N-acetylneuraminic acid Fold Change,"AD+31/AD, p-value 0.9957",1
same,ergothioneine Fold Change,"C+31/C, p-value 0.0002",0.56
same,17-methylstearate Fold Change,"C+31/C, p-value 0.0006",0.54
same,phenol sulfate Fold Change,"C+31/C, p-value 0.0029",0.41
same,N-delta-acetylornithine Fold Change,"C+31/C, p-value 0.0034",1.51
same,gamma-glutamylhistidine Fold Change,"C+31/C, p-value 0.0046",0.55
same,1-palmitoylglycerol (16:0) Fold Change,"C+31/C, p-value 0.0049",0.67
same,dihomo-linoleate (20:2n6) Fold Change,"C+31/C, p-value 0.0052",0.53
same,linoleoyl ethanolamide Fold Change,"C+31/C, p-value 0.0058",0.52
same,arachidate (20:0) Fold Change,"C+31/C, p-value 0.0074",0.59
same,pyroglutamine* Fold Change,"C+31/C, p-value 0.0076",1.27
same,adenosine 2'-monophosphate (2'-AMP) Fold Change,"C+31/C, p-value 0.0085",1.49
same,docosatrienoate (22:3n3) Fold Change,"C+31/C, p-value 0.0095",0.35
same,stearate (18:0) Fold Change,"C+31/C, p-value 0.01",0.61
same,nonadecanoate (19:0) Fold Change,"C+31/C, p-value 0.0112",0.63
same,1-oleoylglycerol (18:1) Fold Change,"C+31/C, p-value 0.0125",0.6
same,10-nonadecenoate (19:1n9) Fold Change,"C+31/C, p-value 0.0132",0.6
same,3-hydroxybutyrylcarnitine (2) Fold Change,"C+31/C, p-value 0.016",1.78
same,adrenate (22:4n6) Fold Change,"C+31/C, p-value 0.0161",0.5
same,oleate/vaccenate (18:1) Fold Change,"C+31/C, p-value 0.0172",0.59
same,eicosenoate (20:1) Fold Change,"C+31/C, p-value 0.0212",0.61
same,lactate Fold Change,"C+31/C, p-value 0.0212",1.26
same,palmitate (16:0) Fold Change,"C+31/C, p-value 0.0241",0.65
same,margarate (17:0) Fold Change,"C+31/C, p-value 0.0267",0.61
same,2-hydroxydecanoate Fold Change,"C+31/C, p-value 0.0327",0.68
same,1-arachidonylglycerol (20:4) Fold Change,"C+31/C, p-value 0.0338",0.66
same,3-hydroxybutyrate (BHBA) Fold Change,"C+31/C, p-value 0.0349",1.87
same,2-palmitoylglycerol (16:0) Fold Change,"C+31/C, p-value 0.035",0.65
same,succinylcarnitine Fold Change,"C+31/C, p-value 0.0357",0.72
same,oleoyl-oleoyl-glycerol (18:1/18:1) [2]* Fold Change,"C+31/C, p-value 0.0363",1.12
same,acetyl CoA Fold Change,"C+31/C, p-value 0.0372",1.87
same,erucate (22:1n9) Fold Change,"C+31/C, p-value 0.0376",0.64
same,glycerol 3-phosphate Fold Change,"C+31/C, p-value 0.0387",0.8
same,docosadienoate (22:2n6) Fold Change,"C+31/C, p-value 0.0388",0.62
same,acetylcarnitine Fold Change,"C+31/C, p-value 0.0422",1.53
same,1-docosahexaenoylglycerol (22:6) Fold Change,"C+31/C, p-value 0.0423",0.64
same,1-stearoyl-GPG (18:0) Fold Change,"C+31/C, p-value 0.0449",0.59
same,arachidonoyl ethanolamide Fold Change,"C+31/C, p-value 0.0462",0.86
same,glucosamine-6-phosphate Fold Change,"C+31/C, p-value 0.0462",1.4
same,glutamate Fold Change,"C+31/C, p-value 0.0465",1.09
same,tricosenoate (23:1) Fold Change,"C+31/C, p-value 0.0476",0.64
same,mead acid (20:3n9) Fold Change,"C+31/C, p-value 0.0477",0.6
same,adenosine 5'-diphosphoribose (ADP-ribose) Fold Change,"C+31/C, p-value 0.0695",1.15
same,sedoheptulose-7-phosphate Fold Change,"C+31/C, p-value 0.0888",1.15
same,2-hydroxystearate Fold Change,"C+31/C, p-value 0.0897",0.58
same,UDP-N-acetylglucosamine/galactosamine Fold Change,"C+31/C, p-value 0.0923",1.08
same,2-oleoylglycerol (18:1) Fold Change,"C+31/C, p-value 0.0938",0.77
same,putrescine Fold Change,"C+31/C, p-value 0.0994",1.2
same,2-methylcitrate/homocitrate Fold Change,"C+31/C, p-value 0.1114",1.09
same,1-palmitoyl-GPG (16:0)* Fold Change,"C+31/C, p-value 0.126",0.57
same,mannose-6-phosphate Fold Change,"C+31/C, p-value 0.1316",1.33
same,"glutamate, gamma-methyl ester Fold Change","C+31/C, p-value 0.1579",1.35
same,anserine Fold Change,"C+31/C, p-value 0.1772",1.18
same,gulonate* Fold Change,"C+31/C, p-value 0.179",1.11
same,glucose 6-phosphate Fold Change,"C+31/C, p-value 0.199",1.27
same,fructose-6-phosphate Fold Change,"C+31/C, p-value 0.2317",1.26
same,methylphosphate Fold Change,"C+31/C, p-value 0.233",1.1
same,1-oleoyl-2-linoleoyl-GPC (18:1/18:2)* Fold Change,"C+31/C, p-value 0.2649",0.92
same,N-formylmethionine Fold Change,"C+31/C, p-value 0.286",1.07
same,acetylphosphate Fold Change,"C+31/C, p-value 0.2996",1.11
same,phosphoethanolamine Fold Change,"C+31/C, p-value 0.3099",1.04
same,azelate (nonanedioate) Fold Change,"C+31/C, p-value 0.3211",0.81
same,methionine Fold Change,"C+31/C, p-value 0.3291",1.08
same,coenzyme A Fold Change,"C+31/C, p-value 0.3422",0.88
same,arabinose Fold Change,"C+31/C, p-value 0.3687",1.05
same,1-palmitoyl-2-gamma-linolenoyl-GPC (16:0/18:3n6)* Fold Change,"C+31/C, p-value 0.3875",0.94
same,3-sulfo-nervonoyl-galactosylceramide (d18:1/24:1) Fold Change,"C+31/C, p-value 0.4046",0.97
same,N-acetylmethionine Fold Change,"C+31/C, p-value 0.4061",0.96
same,UDP-galactose Fold Change,"C+31/C, p-value 0.4075",0.86
same,N-acetylglucosaminylasparagine Fold Change,"C+31/C, p-value 0.4104",0.96
same,prolylglycine Fold Change,"C+31/C, p-value 0.4172",0.96
same,1-stearoyl-GPC (18:0) Fold Change,"C+31/C, p-value 0.4215",1.08
same,N-acetylalanine Fold Change,"C+31/C, p-value 0.4319",1.04
same,1-oleoyl-2-arachidonoyl-GPI (18:1/20:4) * Fold Change,"C+31/C, p-value 0.4368",1.04
same,1-(1-enyl-stearoyl)-2-arachidonoyl-GPE (P-18:0/20:4)* Fold Change,"C+31/C, p-value 0.4593",0.98
same,UDP-glucose Fold Change,"C+31/C, p-value 0.4697",0.92
same,galactose 1-phosphate Fold Change,"C+31/C, p-value 0.4772",1.14
same,1-methylimidazoleacetate Fold Change,"C+31/C, p-value 0.4871",1.07
same,cytidine 5'-monophospho-N-acetylneuraminic acid Fold Change,"C+31/C, p-value 0.4904",0.95
same,ribose Fold Change,"C+31/C, p-value 0.5044",1.04
same,glycerate Fold Change,"C+31/C, p-value 0.512",0.86
same,glycerophosphoethanolamine Fold Change,"C+31/C, p-value 0.5491",1.04
same,palmitoylcholine Fold Change,"C+31/C, p-value 0.5572",0.92
same,1-stearoyl-2-oleoyl-GPI (18:0/18:1)* Fold Change,"C+31/C, p-value 0.5722",1.05
same,"sphingomyelin (d18:1/18:1, d18:2/18:0) Fold Change","C+31/C, p-value 0.5944",1.03
same,5-methylthioadenosine (MTA) Fold Change,"C+31/C, p-value 0.6209",1.02
same,6-phosphogluconate Fold Change,"C+31/C, p-value 0.6443",0.95
same,3-hydroxy-3-methylglutarate Fold Change,"C+31/C, p-value 0.6796",1.02
same,2'-deoxycytidine Fold Change,"C+31/C, p-value 0.6852",1.04
same,N-acetylglutamate Fold Change,"C+31/C, p-value 0.7525",0.99
same,beta-citrylglutamate Fold Change,"C+31/C, p-value 0.7663",1.03
same,O-methyltyrosine Fold Change,"C+31/C, p-value 0.8149",1.04
same,N-acetyl-glucosamine 1-phosphate Fold Change,"C+31/C, p-value 0.8284",1.06
same,1-palmitoyl-2-oleoyl-GPS (16:0/18:1) Fold Change,"C+31/C, p-value 0.8378",1.01
same,hypoxanthine Fold Change,"C+31/C, p-value 0.8444",1.01
same,lysine Fold Change,"C+31/C, p-value 0.8761",1
same,hippurate Fold Change,"C+31/C, p-value 0.9003",1.01
same,N-acetylneuraminate Fold Change,"C+31/C, p-value 0.9027",1.01
same,1-palmitoyl-2-palmitoleoyl-GPC (16:0/16:1)* Fold Change,"C+31/C, p-value 0.9106",1
same,glycerophosphoglycerol Fold Change,"C+31/C, p-value 0.9156",1
same,deoxycarnitine Fold Change,"C+31/C, p-value 0.9284",1.02
same,mannose Fold Change,"C+31/C, p-value 0.9846",0.96

# — publication PMC5513091, “A novel Alzheimer’s disease drug candidate targeting inflammation and fatty acid metabolism” (Alzheimer's Research & Therapy, 2017)
